# Values quoted from earlier work in patent publication US7588907B2, “Ubiquitin mediated fluorescence complementation assay” (The Regents of the University of Michigan, priority 2005, dated 2009).
# Residues, ends and D or L forms follow the SMILES beside them. *: point of attachment. Cbz = O=C(OCc1ccccc1)*
# Tested on: Jun ubiquitinated by DCX^hDET1-hCOP1
# Settings: cells that overexpressed DCX^hDET1-hCOP1 E3 ligase
smiles,measurement,value
CC(C)C[C@@H](C=O)NC(=O)[C@H](CC(C)C)NC(=O)[C@H](CC(C)C)NC(=O)OCc1ccccc1 [MG132] (Cbz-Leu-Leu-Leu-aldehyde),effect on Jun degradation,inhibited
